Results on 34 compounds are retold here after patent US5789188A, “Tetracycline-efflux pump inhibitor screening methods” (priority 1996, dated 1998).

In one assay the test system is strain KB3ind. In kind it is cell-based, E. coli. As to the method: (§1) To detect tetracyclines, a plate assay is developed that is similar to one described previously (11). Cells are grown in Luria Broth (adjusted with NaOH to pH 7.5) with 25 μg/ml of kanamycin to a cell density of 0.5 absorbance units (600 nm). A 25 ml sample of the culture is harvested by centrifugation and resuspended in 1 ml of broth. The cells are mixed with 25 ml of soft agar (1%, wt/vol) and poured onto 100 ml of LB (pH 7.5)+ kanamycin, within a 22 cm^2 NUNC plate (Corning). Samples are applied by spotting from 2 to 15 μl, or by applying a disc impregnated with a compound, and the plate is incubated for 3-4 hours at 37° C. The plates are overlaid with a solution containing 13.5 mg of 6-bromo-2-naphthyl-β-D-galactopyranoside side and 86.5 mg of fast blue RR (Sigma) dissolved in 2 ml of dimethylsulfoxide, to which 25 ml of soft agar is added. β-Galactosidase is detected by the presence of a purple spot.

Assay [1] concerns tetracycline efflux pump (strain KB4 or KB5). The experiment in a line: Inhibition Assay, plate assay (agar with 5 ng/ml of tetracycline). Also: key: ±: Possible positive; +: Weak positive; ++: Stronger positive; -: Negative. In kind it is cell-based, E. coli. The note with it: disc on assay plate. As to the method: as §1
Two assays are developed for detecting inhibitors of the tetA gene product (using strain KB5), or the tetK gene product (using strain KB4). In the Inhibition Assay, cells of strain KB4 or KB5 are treated as described in the tetracycline screen above, except that the agar medium contains 5 ng/ml of tetracycline. Alternatively a Liquid Assay is also developed. Cells are first grown in LB (pH 7.5). Then cells are shifted to medium containing 5 ng/ml of tetracycline, and tetracycline-containing samples are added to aliquots. Cells are then incubated and assayed as described for the Tetracycline Assay. […] However, the intracellular concentration is reduced in tetracycline resistant strains due to the action of the efflux pump, so more tetracycline would be required in the medium to accumulate sufficient tetracycline inside the cell to induce. The Inhibition Assay is designed to detect compounds that cause β-galactosidase induction in the presence of sub-inducing levels of tetracycline for a resistant strain.

Read-outs that look alike come from different tables or passages of the source.
For Induction Assay response in this document: key: ±: Possible positive; +: Weak positive; ++: Stronger positive; -: Negative.

As for `CN(C)C1C(=O)C(C(N)=O)=C(O)C2(O)C(=O)C3=C(O)c4c(O)ccc(Cl)c4C(O)C3CC12` (stereo not shown) [6-dimethyl chlortetracycline], the “response in the Tetracycline Assay (β-galactosidase induction)” value in the assay on strain KB3ind (strain KB3ind, plate assay (plate or liquid assay)) was “capable of detecting”. For the compound `NCC[C@H](O)C(=O)N[C@@H]1C[C@H](N)[C@@H](O[C@H]2O[C@H](CN)[C@@H](O)[C@H](O)[C@H]2O)[C@H](O)[C@H]1O[C@H]1O[C@H](CO)[C@@H](O)[C@H](N)[C@H]1O` [Amikacin], the “Induction Assay response” value in the assay on strain KB3ind (disc on assay plate) is recorded as “-”. In addition, the “Inhibition Assay response” value in assay [1] is “-”. As to `CC1(C)S[C@@H]2[C@H](NC(=O)[C@H](N)c3ccccc3)C(=O)N2[C@H]1C(=O)O` [Ampicillin], the “Induction Assay response” value in the assay with strain KB3ind (disc on assay plate) is “+”. As for `CC1(C)S[C@@H]2[C@H](NC(=O)[C@H](NC(=O)N3CCNC3=O)c3ccccc3)C(=O)N2[C@H]1C(=O)O` [Azlocillin], the “Inhibition Assay response” value in assay [1] is on record as “-”. As to `C[C@H]1[C@H](NC(=O)/C(=N\OC(C)(C)C(=O)O)c2csc(N)n2)C(=O)N1S(=O)(=O)O` [Aztreonam], the “Induction Assay response” value in the assay with strain KB3ind (disc on assay plate) is listed as “-”. In addition, the “Inhibition Assay response” value in assay [1] was “-”. As for `CC1(C)S[C@@H]2[C@H](NC(=O)C(C(=O)O)c3ccccc3)C(=O)N2[C@H]1C(=O)O` (stereo partly shown) [Carbenicillin], in the assay with strain KB3ind (disc on assay plate), the “Induction Assay response” value is “+”. In assay [1], the “Inhibition Assay response” value is reported as “+”.

As for `Cn1nnnc1SCC1=C(C(=O)O)N2C(=O)[C@@H](NC(=O)[C@H](O)c3ccccc3)[C@H]2SC1` [Cefamandole], the “Induction Assay response” value in the assay on strain KB3ind (disc on assay plate) is reported as “±”. The “Inhibition Assay response” value in assay [1] was “+”. Consider `CO/N=C(\C(=O)N[C@@H]1C(=O)N2C(C(=O)O)=C(COC(C)=O)CS[C@H]12)c1csc(N)n1` [Cefotaxime], for which the “Induction Assay response” value in the assay on strain KB3ind (disc on assay plate) is given as “+”.

Consider `CO[C@@]1(NC(=O)Cc2cccs2)C(=O)N2C(C(=O)O)=C(COC(N)=O)CS[C@@H]21` [Cefoxitin], for which the “Inhibition Assay response” value in assay [1] is “+”. On the same count and under the same terms, with `NC(=O)c1cc[n+](CC2=C(C(=O)O)N3C(=O)[C@@H](NC(=O)[C@@H](c4ccccc4)S(=O)(=O)[O-])[C@H]3SC2)cc1` [Cefsulodin] the entry was “±”. As for `CC(C)(O/N=C(\C(=O)N[C@@H]1C(=O)N2C(C(=O)[O-])=C(C[n+]3ccccc3)CS[C@H]12)c1csc(N)n1)C(=O)O` [Ceftazidine], the “Induction Assay response” value in the assay with strain KB3ind (disc on assay plate) is “++”. In addition, the “Inhibition Assay response” value in assay [1] was “++”. In the case of `O=C(Cc1cccs1)N[C@@H]1C(=O)N2C(C(=O)[O-])=C(C[n+]3ccccc3)CS[C@H]12` [Cephaleridine], in assay [1], the “Inhibition Assay response” value is “+”. As for `CC(=O)OCC1=C(C(=O)O)N2C(=O)[C@@H](NC(=O)Cc3cccs3)[C@H]2SC1` [Cephalethin], the “Induction Assay response” value in the assay with strain KB3ind (disc on assay plate) is “+”. The “Inhibition Assay response” value in assay [1] is listed as “+”.

Consider `O=C(N[C@H](CO)[C@H](O)c1ccc([N+](=O)[O-])cc1)C(Cl)Cl` [Chloremphenicol], for which the “Induction Assay response” value in the assay with strain KB3ind (disc on assay plate) is given as “-”. In assay [1], the “Inhibition Assay response” value is “-”.

As for `CCn1nc(C(=O)O)c(=O)c2cc3c(cc21)OCO3` [Cinoxacin], in the assay with strain KB3ind (disc on assay plate), the “Induction Assay response” value was “±”. Moreover, in assay [1], the “Inhibition Assay response” value is reported as “-”. With `Cc1onc(-c2ccccc2Cl)c1C(=O)N[C@@H]1C(=O)N2[C@@H]1SC(C)(C)[C@@H]2C(=O)O` [Cloxacillin], the “Inhibition Assay response” value in assay [1] is listed as “-”. Regarding `CC[C@H]1OC(=O)[C@H](C)[C@@H](O[C@H]2C[C@@](C)(OC)[C@@H](O)[C@H](C)O2)[C@H](C)[C@@H](O[C@@H]2O[C@H](C)C[C@H](N(C)C)[C@H]2O)[C@](C)(O)C[C@@H](C)C(=O)[C@H](C)[C@@H](O)[C@]1(C)O` [Erythromycin], the “Induction Assay response” value in the assay with strain KB3ind (disc on assay plate) was “-”. The “Inhibition Assay response” value in assay [1] is reported as “-”.

Regarding `CC[n+]1c(-c2ccccc2)c2cc(N)ccc2c2ccc(N)cc21` [Ethidium bromide], the “Inhibition Assay response” value in assay [1] is “-”. Turning to `C[C@@H](O)[C@H]1C(=O)N2C(C(=O)O)=C(SCCN=CN)C[C@H]12` [Imipenem], the “Induction Assay response” value with strain KB3ind is reported as “++”. Besides, the “Inhibition Assay response” value in assay [1] is “++”. Take `NC[C@H]1O[C@H](O[C@H]2[C@H](O)[C@@H](O[C@H]3O[C@H](CO)[C@@H](O)[C@H](N)[C@H]3O)[C@H](N)C[C@@H]2N)[C@H](O)[C@@H](O)[C@@H]1O` [Kanamycin]: the “Induction Assay response” value in the assay with strain KB3ind is recorded as “-”. Moreover, the “Inhibition Assay response” value in assay [1] is on record as “-”. Turning to `COc1cccc(OC)c1C(=O)N[C@@H]1C(=O)N2[C@@H]1SC(C)(C)[C@@H]2C(=O)O` [Methicillin], the “Induction Assay response” value in the assay on strain KB3ind (disc on assay plate) was “-”. Also, the “Inhibition Assay response” value in assay [1] is recorded as “-”. As to `CO[C@@]1(NC(=O)C(C(=O)O)c2ccc(O)cc2)C(=O)N2C(C(=O)O)=C(CSc3nnnn3C)CO[C@@H]21` (stereo partly shown) [Moxalactam], the “Induction Assay response” value in the assay with strain KB3ind (disc on assay plate) was “-”. Also, in assay [1], the “Inhibition Assay response” value is listed as “+”. The like results for `CCOc1ccc2ccccc2c1C(=O)N[C@@H]1C(=O)N2[C@@H]1SC(C)(C)[C@@H]2C(=O)O` [Nafcillin] were, in that order, “-” and “-”.

On to `CCn1cc(C(=O)O)c(=O)c2ccc(C)nc21` [Nalidixic Acid], for which the “Induction Assay response” value in the assay with strain KB3ind (disc on assay plate) is “-”. Moreover, the “Inhibition Assay response” value in assay [1] is on record as “-”.

On to `CCn1cc(C(=O)O)c(=O)c2cc(F)c(N3CCNCC3)cc21` [Norfloxacin], for which, in the assay on strain KB3ind (disc on assay plate), the “Induction Assay response” value is “-”. Also, the “Inhibition Assay response” value in assay [1] is reported as “-”. Take `CO[C@@H]1[C@@H](OC(N)=O)[C@@H](O)[C@H](Oc2ccc3c(O)c(NC(=O)c4ccc(O)c(CC=C(C)C)c4)c(=O)oc3c2C)OC1(C)C` [Novobiocin]: in the assay on strain KB3ind (disc on assay plate), the “Induction Assay response” value is on record as “-”. Besides, the “Inhibition Assay response” value in assay [1] is given as “-”. Regarding `C[C@@H]1[C@H](O)[C@@H](C)/C=C/C=C/CC/C=C/C=C/C=C/C=C/C(O[C@H]2O[C@H](C)[C@@H](O)[C@H](N)[C@@H]2O)CC2O[C@](O)(CC(O)C(O)CCC(O)CC(O)CC(O)CC(=O)O[C@H]1C)CC(O)C2C(=O)O` (stereo partly shown) [Nystatin], the “Induction Assay response” value in the assay with strain KB3ind (disc on assay plate) was “++”. The “Inhibition Assay response” value in assay [1] is given as “-”. The like results for `Cc1onc(-c2ccccc2)c1C(=O)N[C@@H]1C(=O)N2[C@@H]1SC(C)(C)[C@@H]2C(=O)O` [Oxacillin] were, in that order, “-” and “-”.

Take `CC1(C)S[C@@H]2[C@H](NC(=O)Cc3ccccc3)C(=O)N2[C@H]1C(=O)O` [Penicillin G]: the “Induction Assay response” value in the assay with strain KB3ind (disc on assay plate) is recorded as “-”. Besides, the “Inhibition Assay response” value in assay [1] is “-”. For `CCN1CCN(C(=O)N[C@@H](C(=O)N[C@@H]2C(=O)N3[C@@H]2SC(C)(C)[C@@H]3C(=O)O)c2ccccc2)C(=O)C1=O` [Piperacillin], the “Induction Assay response” value with strain KB3ind (disc on assay plate) is “±”. Further, the “Inhibition Assay response” value in assay [1] was “-”. On to `CO[C@H]1/C=C/O[C@@]2(C)Oc3c(C)c(O)c4c(O)c(c(/C=N/N5CCN(C)CC5)c(O)c4c3C2=O)NC(=O)/C(C)=C\C=C\[C@H](C)[C@H](O)[C@@H](C)[C@@H](O)[C@@H](C)[C@H](OC(C)=O)[C@@H]1C` [Rifampin], for which the “Induction Assay response” value in the assay on strain KB3ind is “-”. Also, the “Inhibition Assay response” value in assay [1] was “-”. Turning to `[H]/N=C(/N)N[C@H]1[C@H](O)[C@@H](O)[C@H](O[C@@H]2O[C@@H](C)[C@](O)(C=O)[C@H]2O[C@@H]2O[C@@H](CO)[C@H](O)[C@@H](O)[C@@H]2NC)[C@@H](N/C(N)=N\[H])[C@@H]1O` [Streptomycin], in the assay with strain KB3ind (disc on assay plate), the “Induction Assay response” value is recorded as “-”. In assay [1], the “Inhibition Assay response” value was “-”. For the compound `Nc1ccc(S(=O)(=O)Nc2ccc(Cl)nn2)cc1` [Sulfachloropyridazine], in the assay on strain KB3ind (disc on assay plate), the “Induction Assay response” value is given as “-”. Further, the “Inhibition Assay response” value in assay [1] was “-”. For Neomycin, the “Induction Assay response” value with strain KB3ind (disc on assay plate) is “-”.
